Data: patent publication US20230002359A1, “PESTICIDALLY ACTIVE FUSED BICYCLIC HETEROAROMATIC COMPOUNDS” (priority 2019, published 2023)
Blank lines part the entries; values can stand above or below the compound they belong to.

Columns and labels:
[1] = test system: Plutella xylostella (Diamond Back Moth); experiment: Example B4: Plutella xylostella (diamond back moth), artificial diet, eggs, 24-well; assay type: in vivo; details: 192 h, application rate of 200 ppm, 8 days after infestation, eggs, read-out: control in at least one of the two categories (mortality or growth inhibition)
Experimental: 24-well microtiter plates with artificial diet were treated with aqueous test solutions prepared from 10′000 ppm DMSO stock solutions by pipetting. After drying, Plutella eggs were pipetted through a plastic stencil onto a gel blotting paper and the plate was closed with it. The samples were assessed for mortality and growth inhibition in comparison to untreated samples 8 days after infestation.

[2] = test system: Chilo suppressalis (Striped Rice Stemborer); experiment: Example B3: Chilo suppressalis (striped rice stemborer), artificial diet, L2 larvae; assay type: in vivo; details: 144 h, application rate of 200 ppm, 6 days after infestation, L2 larvae, read-out: control in at least one of the three categories (mortality, anti-feedant effect, or growth inhibition)
Summary of the method: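 First, artificial diet was treated with aqueous solutions prepared from 10'000 ppm DMSO stocks; second, after drying, L2 larvae (6-8/well) were added; third, effects were assessed at 6 days against untreated controls, counting control when any of three categories was higher.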

[3] = test system: Plutella xylostella (Diamondback Moth); experiment: Example B9: Plutella xylostella (diamondback moth), artificial diet, eggs, 96-well; assay type: in vivo; details: 216 h, application rate of 500 ppm, 9 days after infestation, read-out: control in mortality
Experimental: 96-well microtiter plates containing artificial diet were treated with aqueous test solutions, prepared from 10′000 ppm DMSO stock solutions, by a liquid handling robot. After drying, eggs (˜30 per well) were infested onto a netted lid which was suspended above the diet. The eggs hatch and L1 larvae move down to the diet. The samples were assessed for mortality 9 days after infestation.

[4] = test system: Spodoptera littoralis (Egyptian Cotton Leaf Worm); experiment: Example B7: Spodoptera littoralis (Egyptian cotton leaf worm), cotton leaf discs sprayed, L1 larvae; assay type: in vivo; details: foliar, 72 h, application rate of 200 ppm, 3 days after infestation, L1 larvae, read-out: control in at least one of the three categories (mortality, anti-feedant effect, or growth inhibition)
Summary of the method: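 Leaf discs on agar sprayed with aqueous dilutions of 10′000 ppm DMSO stocks, dried, then infested with five L1 larvae. Mortality, anti-feeding and growth inhibition scored versus untreated 3 days after infestation; control given when any category exceeds untreated.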

[5] = test system: Myzus persicae (Green Peach Aphid); experiment: Example B6: Myzus persicae (green peach aphid) intrinsic activity, sucrose solution; assay type: in vivo; details: 120 h, test rate of 12 ppm, 5 days after infestation, intrinsic activity, read-out: mortality
Summary of the method: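 Compounds from 10′000 ppm DMSO stocks were mixed into sucrose solution in 24-well plates sealed with Parafilm. Aphid-infested pea seedlings were set on the membrane and the plate inverted so aphids fed through it. Mortality scored 5 days after infestation.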

[6] = test system: Diabrotica Balteata (Corn Root Worm); experiment: Example B1: Diabrotica balteata (corn root worm), maize sprouts sprayed, L2 larvae; assay type: in vivo; details: 96 h, application rate of 200 ppm, 4 days after infestation, L2 larvae, read-out: control in at least one of the two categories (mortality or growth inhibition)
Summary of the method: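 Read-out is mortality plus growth inhibition relative to untreated controls, assessed 4 days after infestation. Sprouts resting on agar are sprayed with aqueous solutions derived from 10′000 ppm DMSO stocks and left to dry before L2 larvae (6 to 10 per well) are added.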

[7] = test system: Euschistus heros (Neotropical Brown Stink Bug); experiment: Example B2: Euschistus heros (neotropical brown stink bug), soybean leaves sprayed, N2 nymphs; assay type: in vivo; details: 120 h, application rate of 200 ppm, 5 days after infestation, N2 nymphs, read-out: control in at least one of the two categories (mortality or growth inhibition)
Experimental: Soybean leaves on agar in 24-well microtiter plates were sprayed with aqueous test solutions prepared from 10′000 ppm DMSO stock solutions. After drying the leaves were infested with N2 nymphs. The samples were assessed for mortality and growth inhibition in comparison to untreated samples 5 days after infestation.

[8] = test system: Myzus persicae (Green Peach Aphid); experiment: Example B5: Myzus persicae (green peach aphid) feeding/contact activity, sunflower leaf discs; assay type: in vivo; details: foliar, 144 h, application rate of 200 ppm, 6 days after infestation
Experimental: Sunflower leaf discs were placed onto agar in a 24-well microtiter plate and sprayed with aqueous test solutions prepared from 10′000 ppm DMSO stock solutions. After drying, the leaf discs were infested with an aphid population of mixed ages. The samples were assessed for mortality 6 days after infestation.

- melting point: 261 to 263 °C
SMILES: CC(Nc1c(C#N)cnc2c(C(F)(F)F)cc(C(F)(F)F)cc12)c1ncnn1-c1ccc(C#N)cn1 (stereo not drawn)

- melting point: 144 to 146 °C
SMILES: C[C@@H](c1ncnn1-c1ccc(-c2ncon2)cn1)N(C)c1ncnc2c(C(F)(F)F)cc(Cl)cc12

- melting point: 102 to 104 °C
SMILES: CC(c1ncnn1-c1ccc(OC(F)F)cn1)N(C)c1ncnc2c(Cl)cc(C(F)(F)F)cc12 (stereo not drawn)

SMILES: CC(Nc1ncnc2c(C(F)(F)F)cccc12)c1ncnn1-c1ccc(C#N)cn1 (stereo not drawn) [P.62, 6-[5-[1-[[8-(trifluoromethyl)quinazolin-4-yl]amino]ethyl]-1,2,4-triazol-1-yl]pyridine-3-carbonitrile]
- percent control (mortality or growth inhibition) at 200 ppm [1]: ≥ 80%
- percent control (mortality, anti-feedant effect or growth inhibition) at 200 ppm [2]: ≥ 80%
- mortality at 500 ppm [3]: ≥ 80%

- melting point: 251 to 253 °C
SMILES: CC(c1nccnc1-c1ccc(C#N)cn1)N(CC1CC1)c1ncnc2c(C(F)(F)F)cc(Br)cc12 (stereo not drawn)

- melting point: 75 to 77 °C
SMILES: C[C@@H](c1ncnn1-c1ccc(-c2noc(C(F)(F)F)n2)cn1)N(C)c1ncnc2c(C(F)(F)F)cc(Cl)cc12

SMILES: CC(Nc1nccc2c(C(F)(F)F)cccc12)c1ncnn1-c1ccccn1 (stereo not drawn) [P.69, N-[1-[2-(2-pyridyl)-1,2,4-triazol-3-yl]ethyl]-5-(trifluoromethyl)isoquino-lin-1-amine]
- mortality at 500 ppm [3]: ≥ 80%

- melting point: 282 to 284 °C
SMILES: CC(Nc1ncnc2c(C(F)(F)F)cc(Br)cc12)c1ncnn1-c1ccc(F)cn1 (stereo not drawn)

- melting point: 280 to 282 °C
SMILES: CC(Nc1ncnc2c(Br)cc(C(F)(F)F)cc12)c1ncnn1-c1ccc(Br)cn1 (stereo not drawn)

- melting point: 84 to 86 °C
SMILES: C[C@@H](c1ncnn1-c1ncccn1)N(C)c1c(C#N)cnc2c(C(F)(F)F)cc(C(F)(F)F)cc12

- melting point: 142 to 144 °C
SMILES: C[C@@H](c1ncnn1-c1ccc(-c2nccs2)cn1)N(C)c1ncnc2c(C(F)(F)F)cc(Cl)cc12

- melting point: 183 to 185 °C
SMILES: C[C@@H](c1ncnn1-c1ccc(C(N)=O)cn1)N(C)c1ncnc2c(C(F)(F)F)cc(C(F)(F)F)cc12

- melting point: 240 to 242 °C
SMILES: CC(Nc1ncnc2c(Cl)cc(C(F)(F)F)cc12)c1ncnn1-c1ccc(OC(F)F)cn1 (stereo not drawn)

- melting point: 230 to 232 °C
SMILES: CC(Nc1ncnc2c(Cl)cc(C(F)(F)F)cc12)c1nccnc1-c1ccc(Br)cn1 (stereo not drawn)

- melting point: 87 to 89 °C
SMILES: CC(c1ncnn1-c1ncccn1)N(CC1CC1)c1nc(Cl)nc2c(Br)cc(C(F)(F)F)cc12 (stereo not drawn)

- melting point: 223 to 225 °C
SMILES: C[C@@H](c1ncnn1-c1ccc(C(N)=NO)cn1)N(C)c1ncnc2c(C(F)(F)F)cc(Cl)cc12

- melting point: 215 to 225 °C
SMILES: CC(Nc1ncnc2c(Cl)c(F)c(Cl)cc12)c1ncnn1-c1ccc(C#N)cn1 (stereo not drawn)

- melting point: 81 to 83 °C
SMILES: CC(c1ncnn1-c1ncccn1)N(CC1CC1)c1nc(Cl)nc2c(Cl)cc(C(F)(F)F)cc12 (stereo not drawn)

SMILES: CC(c1ncnn1-c1ccc(C#N)cn1)N(C)c1ncnc2c(C(F)(F)F)cc(C(F)(F)F)cc12 (stereo not drawn) [P.28, 6-[5-[1-[[6,8-bis(trifluoromethyl)quina-zolin-4-yl]-methyl-amino]ethyl]-1,2,4-triazol-1-yl]pyridine-3-carbonitrile]
- percent control (mortality, anti-feedant effect or growth inhibition) at 200 ppm [4]: ≥ 80%
- percent control (mortality or growth inhibition) at 200 ppm [1]: ≥ 80%
- percent control (mortality, anti-feedant effect or growth inhibition) at 200 ppm [2]: ≥ 80%
- mortality at 12 ppm [5]: ≥ 80%
- percent control (mortality or growth inhibition) at 200 ppm [6]: ≥ 80%
- percent control (mortality or growth inhibition) at 200 ppm [7]: ≥ 80%
- mortality at 200 ppm [8]: ≥ 80%

- melting point: 254 to 256 °C
SMILES: CC(c1nccnc1-c1ccc(C#N)cn1)N(CC1CC1)c1ncnc2c(C(F)(F)F)cc(Cl)cc12 (stereo not drawn)

SMILES: C[C@@H](c1ncnn1-c1ccc(C#N)cn1)N(CC1CC1)c1ncnc2c(Cl)cc(C(F)(F)F)cc12 [P.271, 6-[5-[(1S)-1-[[8-chloro-6-(trifluoromethyl)quinazolin-4-yl]-(cyclopropylmethyl)amino]ethyl]-1,2,4-triazol-1-yl]pyridine-3-carbonitrile]
- percent control (mortality, anti-feedant effect or growth inhibition) at 200 ppm [4]: ≥ 80%
- percent control (mortality or growth inhibition) at 200 ppm [1]: ≥ 80%
- percent control (mortality, anti-feedant effect or growth inhibition) at 200 ppm [2]: ≥ 80%
- mortality at 12 ppm [5]: ≥ 80%
- percent control (mortality or growth inhibition) at 200 ppm [6]: ≥ 80%
- percent control (mortality or growth inhibition) at 200 ppm [7]: ≥ 80%
- mortality at 200 ppm [8]: ≥ 80%

- melting point: 145 to 155 °C
SMILES: CC(c1ncnn1-c1ccc(C#N)cn1)N(C)c1ncnc2c(Cl)c(F)c(Cl)cc12 (stereo not drawn)

SMILES: C[C@@H](c1ncnn1-c1ccc(C#N)cn1)N(C)c1ncnc2c(C(=O)C3CC3)cc(C(F)(F)F)cc12 [P.227, 6-[5-[(1S)-1-[[8-(cyclopropanecarbonyl)-6-(trifluoromethyl)quinazolin-4-yl]-methyl-amino]ethyl]-1,2,4-triazol-1-yl]pyridine-3-carbonitrile]
- percent control (mortality, anti-feedant effect or growth inhibition) at 200 ppm [4]: ≥ 80%
- percent control (mortality or growth inhibition) at 200 ppm [1]: ≥ 80%
- percent control (mortality, anti-feedant effect or growth inhibition) at 200 ppm [2]: ≥ 80%
- mortality at 12 ppm [5]: ≥ 80%
- percent control (mortality or growth inhibition) at 200 ppm [6]: ≥ 80%
- percent control (mortality or growth inhibition) at 200 ppm [7]: ≥ 80%
- mortality at 200 ppm [8]: ≥ 80%

SMILES: Cc1nc(NC(C)c2ncnn2-c2ccc(C#N)cn2)c2cc(C(F)(F)F)cc(C(F)(F)F)c2n1 (stereo not drawn) [P.60, 6-[5-[1-[[2-methyl-6,8-bis(trifluoromethyl)quinazolin-4-yl]amino]ethyl]-1,2,4-triazol-1-yl]pyridine-3-carbonitrile]
- percent control (mortality or growth inhibition) at 200 ppm [1]: ≥ 80%
- percent control (mortality, anti-feedant effect or growth inhibition) at 200 ppm [2]: ≥ 80%
- mortality at 500 ppm [3]: ≥ 80%

SMILES: CC(c1ncnn1-c1ncccn1)N(C)c1ncnc2c(OC(F)F)cc(Br)cc12 (stereo not drawn) [P.245, 6-bromo-8-(difluoromethoxy)-N-methyl-N-[1-(2-pyrimidin-2-yl-1,2,4-triazol-3-yl)ethyl]quinazolin-4-amine]
- percent control (mortality, anti-feedant effect or growth inhibition) at 200 ppm [4]: ≥ 80%
- percent control (mortality or growth inhibition) at 200 ppm [1]: ≥ 80%
- percent control (mortality, anti-feedant effect or growth inhibition) at 200 ppm [2]: ≥ 80%
- mortality at 12 ppm [5]: ≥ 80%
- percent control (mortality or growth inhibition) at 200 ppm [6]: ≥ 80%
- percent control (mortality or growth inhibition) at 200 ppm [7]: ≥ 80%
- mortality at 200 ppm [8]: ≥ 80%

- melting point: 142 to 144 °C
SMILES: CC(c1nccnc1-c1ccc(Br)cn1)N(C)c1ncnc2c(Cl)cc(C(F)(F)F)cc12 (stereo not drawn)

- melting point: 274 to 276 °C
SMILES: CC(Nc1ncnc2c(C(F)(F)F)cc(Cl)cc12)c1ncnn1-c1ccc(Br)cn1 (stereo not drawn)

- melting point: 77 to 79 °C
SMILES: C[C@@H](c1ncnn1-c1ccc(-c2nnn[nH]2)cn1)N(C)c1ncnc2c(C(F)(F)F)cc(Cl)cc12

- melting point: 75 to 77 °C
SMILES: CC(c1ncnn1-c1ccc(OC(F)F)cn1)N(C)c1ncnc2c(Br)cc(C(F)(F)F)cc12 (stereo not drawn)

- melting point: 203 to 205 °C
SMILES: C[C@H](Nc1c(C#N)cnc2c(C(F)(F)F)cc(C(F)(F)F)cc12)c1ncnn1-c1ncccn1

- melting point: 204 to 206 °C
SMILES: C[C@H](Nc1c(C#N)cnc2c(C(F)(F)F)cc(C(F)(F)F)cc12)c1ncnn1-c1ccc(C#N)cn1

SMILES: CCN(c1ncnc2c(C(F)(F)F)cc(Cl)cc12)[C@@H](C)c1ncnn1-c1ccc(C#N)cn1 [P.128, 6-[5-[(1S)-1-[[6-chloro-8-(trifluoromethyl)quinazolin-4-yl]-ethyl-amino]ethyl]-1,2,4-triazol-1-yl]pyridine-3-carbonitrile]
- percent control (mortality, anti-feedant effect or growth inhibition) at 200 ppm [4]: ≥ 80%
- percent control (mortality or growth inhibition) at 200 ppm [1]: ≥ 80%
- percent control (mortality, anti-feedant effect or growth inhibition) at 200 ppm [2]: ≥ 80%
- mortality at 12 ppm [5]: ≥ 80%
- percent control (mortality or growth inhibition) at 200 ppm [6]: ≥ 80%
- percent control (mortality or growth inhibition) at 200 ppm [7]: ≥ 80%
- mortality at 200 ppm [8]: ≥ 80%

- melting point: 214 to 216 °C
SMILES: CC(Nc1ncnc2c(C(F)(F)F)cc(Br)cc12)c1ncnn1-c1ccc(Br)cn1 (stereo not drawn)

- melting point: 182 to 184 °C
SMILES: C[C@@H](c1ncnn1-c1ncccn1)N(C)c1ncnc2c(C(F)(F)F)cc(C3CC3)cc12

SMILES: CC(Nc1ncnc2c(Cl)nccc12)c1nccnc1-n1nccn1 (stereo not drawn) [P.277, 8-chloro-N-[1-[3-(triazol-2-yl)pyrazin-2-yl]ethyl]pyrido[3,4-d]pyrimidin-4-amine]
- mortality at 500 ppm [3]: ≥ 80%
